From PubChem BioAssay (NCI)
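A five-concentration, 48-hour dose response in 96-well plates underlies each endpoint, interpolated linearly between surrounding concentrations. TGI: concentration producing complete growth inhibition.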

What was measured:
Test in all cases: growth of human tumour cells (NCI), 48 h
786-0 renal = test system: 786-0 renal
HOP-92 NSCLC = test system: HOP-92 NSCLC
LOX IMVI melanoma = test system: LOX IMVI melanoma
MDA-MB-231 breast = test system: MDA-MB-231 breast
MOLT-4 leukemia = test system: MOLT-4 leukemia
NCI-H226 lung = test system: NCI-H226 lung
OVCAR-4 ovarian = test system: OVCAR-4 ovarian
OVCAR-5 ovarian = test system: OVCAR-5 ovarian
SN12C renal = test system: SN12C renal
SNB-75 CNS = test system: SNB-75 CNS

| SMILES | TGI (786-0 renal) [µM] | TGI (HOP-92 NSCLC) [µM] | TGI (LOX IMVI melanoma) [µM] | TGI (MDA-MB-231 breast) [µM] | TGI (MOLT-4 leukemia) [µM] | TGI (NCI-H226 lung) [µM] | TGI (OVCAR-4 ovarian) [µM] | TGI (OVCAR-5 ovarian) [µM] | TGI (SN12C renal) [µM] | TGI (SNB-75 CNS) [µM] |
| --- | --- | --- | --- | --- | --- | --- | --- | --- | --- | --- |
| O=C(O)CN(CC(=O)O)C(C(=O)O)c1ccccc1 (centres undefined) | > 100 | > 100 | > 100 | > 100 | > 100 | > 100 | > 100 | > 100 | > 100 | > 100 |
| CN(C)c1cccc2c1C(=O)C=CC21c2ccc(N(C)C)c3c(N(C)C)ccc(c23)C(c2ccccc2)C1c1ccccc1 (centres undefined) | 22.3 | 28.6 | 33.7 | 28.9 | 6.82 | 39.2 | 27.2 | 81.7 | 32.7 | 30.9 |
| COC(=O)C1(O)C(c2ccccc2)=NC2(C)CCCC21 (centres undefined) | > 100 | > 100 | > 100 | > 100 | > 100 | > 100 | > 100 | > 100 | > 100 | > 100 |
| CC(=O)n1nc(-c2ccccc2)n(/N=C/c2ccc([N+](=O)[O-])o2)c1=O | 7.97 | 35.9 | 23.2 | 17.1 | 18.6 | > 19.8 | 35.6 | 10.2 | 7.39 | 26.8 |
| CN(C)c1ccc(Cc2cc3c(O)ccc(O)c3cc(Cc3ccc(N(C)C)cc3)c2=O)cc1 | 32.1 | 14.5 | 40.7 | 63.5 | 8.81 | 56.2 | 39.5 | > 70 | > 73.2 | > 92.2 |
| Cc1cc(C)nc(NS(=O)(=O)c2ccc(NC(=O)c3cccc4c(NNc5ccc(S(=O)(=O)N=C(N)N)cc5)c5ccccc5nc34)cc2)n1 | > 50 | > 50 | > 50 | > 50 | > 50 | > 50 | > 50 |  | > 50 | > 50 |
| COC1C(O)C(O[C@H]2CC[C@@]3(C)C(CC[C@@H]4[C@@H]3CC[C@]3(C)[C@@H](C(C)OC5OC(CO)C(O)C(O)C5O)CC[C@]43O)C2)OC(C)C1OC1OC(CO)C(O)C(O)C1O (some centres undefined) | > 100 | > 100 | > 100 | > 100 | > 100 | > 100 | > 100 | > 100 | > 100 | > 100 |
| CCOC(=O)C1=CC(C)(C(=O)OCC)Nc2c(nc(N)[nH]c2=O)N1 (centres undefined) | > 10 | > 10 | > 10 | > 10 | > 10 | > 10 | > 10 | > 10 | > 10 | > 10 |
| CC1(C)CC(C#Cc2ccccc2)CC(C)(C)N1O | 76.7 | 45 | 29.9 | 29.8 | > 100 | 53.6 | > 100 | 44.2 | 28.8 | 54.1 |
| O=[N+]([O-])c1cc(Cl)ccc1Sc1ccccc1 | > 100 | > 100 | > 100 | > 100 | > 100 | > 100 | > 100 | > 100 | > 100 | 87 |
| O=C1C2=Nc3ccccc3C(O)(C(=O)O)N2c2ccccc21 (centres undefined) | > 100 | > 100 | 59.2 | 35.4 | > 100 | > 100 | 32.4 | 49.4 | > 100 | 74.2 |
| COc1nc2c(N3CCCC3)nc(N3CCNCC3)nc2nc1NCc1ccccc1 | 2.66 | 5.2 | 2.9 | 3.72 | 4.65 | 7.1 | 11.5 | 8.04 | 4.95 | 4.19 |
| COc1ccc2c(c1)c(=O)c1c(NCCNCCO)ccc3c(=O)n(CCN(C)C)c(=O)n2c31 | 0.892 | 0.775 | 1.11 | 0.508 | > 100 | 0.912 | 0.511 | 3.05 | 0.64 | 0.503 |
| C[C@H]1[C@H](C)CC[C@]2(C(=O)OC3OC(CO)C(O)C(O)C3O)CC[C@]3(C)C(=CC[C@@H]4[C@@]5(C)C[C@H]6OC(=O)c7cc(O)c(O)c(O)c7-c7c(cc(O)c(O)c7O)C(=O)O[C@@H]6C(CO)(CO)[C@@H]5CC[C@]43C)[C@H]12 (some centres undefined) | > 52.2 | > 100 | 34.5 | 33 | > 74.4 | > 100 | > 100 | > 100 | > 100 | > 100 |
| C(=C\c1ccccc1)/COc1ccccc1C(N1CCOCC1)n1nc2ccccc2n1 (centres undefined) | 15.8 | 21.9 | 13.5 | 15 | 13.2 | 28.7 | 57.9 | 44.9 | 24.1 | 16.9 |
| O=C(OCC1OC(n2nc(Cn3nnc(-c4cccnc4)n3)n(-c3cccc4ccccc34)c2=S)C(OC(=O)c2ccccc2)C1OC(=O)c1ccccc1)c1ccccc1 (centres undefined) | > 100 | > 100 | > 100 | > 100 | > 100 | > 100 | > 100 | > 100 | > 100 | > 100 |
| CC(C)/C(Cl)=N/OC(=O)Nc1ccc(OC(F)(F)F)cc1 | 19.6 | 3.71 | 5.89 | 32.5 | > 77.9 | 23.5 | 16.7 | 29.2 | 31.7 | 29 |
| Clc1ccc(/C(=C\c2ccccc2)Cn2ccnc2)cc1 | 38.5 | 39.4 | 22.9 | 26.8 | > 100 | 33.1 | > 100 | 63 | 89.2 | 59.4 |
| CN(C)CCCNC(=O)c1c(O)c2ccccc2n(C)c1=O | > 100 | 80.7 | > 100 | > 100 | > 100 | > 100 | > 100 | > 100 | > 100 | > 100 |
| O=C1C(C(O)(C(F)(F)F)C(F)(F)F)CCC1C(O)(C(F)(F)F)C(F)(F)F (centres undefined) | > 38.8 | 0.245 | 10.6 | 17.9 | > 100 | 4.44 | > 100 | > 100 | 30.9 | 7.61 |
